We go through one compound from ChEMBL document CHEMBL3886620, “Substituted imidazopyrazines as Akt kinase inhibitors” (2016).

The target in assay [1] is RAC-alpha serine/threonine-protein kinase (Homo sapiens, UniProt P31749). Nature of the assay: (§1) Akt1 TR-FRET assay: His-tagged human recombinant kinase full-length Akt1 expressed in insect cells was purchased form Invitrogen (part number PV 3599). As substrate for the kinase reaction the biotinylated peptide biotin-Ahx-KKLNRTLSFAEPG (C-terminus in amide form) was used which can be purchased e.g. from the company Biosynthan GmbH (Berlin-Buch, Germany). For the assay 50 nl of a 100 fold concentrated solution of the test compound in DMSO was pipetted into a black low volume 384 well microtiter plate (Greiner Bio-One, Frickenhausen, Germany), 2 μl of a solution of Akt1 in assay buffer [50 mM TRIS/HCl pH 7.5, 5 mM MgCl2, 1 mM dithiothreitol, 0.02% (v/v) Triton X-100 (Sigma)] were added and the mixture was incubated for 15 min at 22 °C. to allow prebinding of the test compounds to the enzyme before the start of the kinase reaction. Then the kinase reaction was started by the addition of 3 μl of a solution of adenosine-tri-phosphate (ATP, 16.7 μM=>final conc. in the 5 μl assay volume is 10 μM) and substrate (1.67 μM=>final conc. in the 5 μl assay volume is 1 μM) in assay buffer and the resulting mixture was incubated for a reaction time of 60 min at 22 °C. […]. For orientation: Time-resolved FRET reads energy transfer from a long-lived donor to a nearby acceptor.
RAC-alpha serine/threonine-protein kinase, sequence (P31749 whole entry): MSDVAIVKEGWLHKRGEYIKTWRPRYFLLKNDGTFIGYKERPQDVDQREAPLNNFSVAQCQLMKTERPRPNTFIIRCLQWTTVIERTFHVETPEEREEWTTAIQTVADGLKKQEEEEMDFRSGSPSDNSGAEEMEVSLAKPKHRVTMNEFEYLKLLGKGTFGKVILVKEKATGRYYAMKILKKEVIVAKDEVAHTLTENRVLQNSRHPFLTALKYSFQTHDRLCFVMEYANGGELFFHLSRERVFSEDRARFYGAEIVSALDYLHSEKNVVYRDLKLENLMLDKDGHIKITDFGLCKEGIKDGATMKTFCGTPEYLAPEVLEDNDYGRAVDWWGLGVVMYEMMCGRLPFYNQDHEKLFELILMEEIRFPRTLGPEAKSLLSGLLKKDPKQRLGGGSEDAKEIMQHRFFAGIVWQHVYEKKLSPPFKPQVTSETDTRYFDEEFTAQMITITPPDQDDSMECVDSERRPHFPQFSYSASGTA

Assay [2] addresses RAC-beta serine/threonine-protein kinase (Homo sapiens, UniProt P31751). The assay is described as §1, with “Akt2 TR-FRET” for “Akt1 TR-FRET”, “full-length Akt2” for “full-length Akt1”, “cells and activated by PDK1” for “cells”, “purchased from” for “purchased form”, “PV 3975).” for “PV 3599).”, “of Akt2” for “of Akt1”.

As usually defined, the IC50 is the concentration at which inhibition is half-maximal.

RAC-beta serine/threonine-protein kinase, sequence (P31751 whole entry): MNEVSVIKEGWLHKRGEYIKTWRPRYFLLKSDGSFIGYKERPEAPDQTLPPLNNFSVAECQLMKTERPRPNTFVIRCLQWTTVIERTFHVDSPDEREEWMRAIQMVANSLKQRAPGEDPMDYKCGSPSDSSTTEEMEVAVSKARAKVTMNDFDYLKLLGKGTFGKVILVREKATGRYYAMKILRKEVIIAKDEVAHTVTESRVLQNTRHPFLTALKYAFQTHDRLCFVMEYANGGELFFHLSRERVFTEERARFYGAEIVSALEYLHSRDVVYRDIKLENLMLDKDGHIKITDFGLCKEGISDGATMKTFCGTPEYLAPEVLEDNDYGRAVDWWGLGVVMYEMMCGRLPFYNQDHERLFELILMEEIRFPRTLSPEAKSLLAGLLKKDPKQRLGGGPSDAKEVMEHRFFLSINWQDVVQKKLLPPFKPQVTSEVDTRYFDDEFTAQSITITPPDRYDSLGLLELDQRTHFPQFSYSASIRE

With `CCOC(=O)c1cn2c(-c3ccccc3)c(-c3ccc(C4(N)CCC4)cc3)nc2cn1`, the IC50 in assay [1] is 0.1 µM; in assay [2], 0.13 µM.
